How the values were obtained:
Female BALB/c mice [1] = assay: Performance evaluation of in vivo delivery of Fluc mRNA lipid nanoparticle (IVIS, body and organs); settings: Fluc mRNA LNP; for Liver (fluorescence expression intensity) / Spleen (fluorescence expression intensity): 75 μL IV; for Liver (fluorescence expression intensity) / Spleen (fluorescence expression intensity) / Total flux (fluorescence expression intensity) / (Spleen/Total Flux) * 100%: 6 hours after injection; for Liver (fluorescence expression intensity) / Spleen (fluorescence expression intensity) / Total flux (fluorescence expression intensity): IVIS; for Total flux (fluorescence expression intensity): 75 μL tail vein injection (IV); for (Spleen/Total Flux) * 100% / Multiple of spleen delivery/total delivery to amino lipid compound 118: IV; for Multiple of spleen delivery/total delivery to amino lipid compound 118: relative to amino lipid compound 118
Procedure, shortened: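 Female BALB/c mice, 6-8 weeks, received 75 μL Fluc mRNA-LNP by tail-vein injection, 3 mice per formulation. At 6 h, 200 μL D-luciferin was injected, mice were anesthetized with isoflurane, and IVIS bioluminescence was imaged in body and organs.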

Female BALB/c mice [2] = assay: IFN-γ Elispot cellular immunity test, spleen lymphocytes of mice immunized with IN002.5.1 mRNA LNP; assay type: in vivo; settings: 50 μL IM, spleen on 7th day after immunization, FIG. 2-4
Female BALB/c mice [3] = assay: Humoral immunity test for total binding IgG antibody (ELISA, SARS-COV-2 antigen protein) in serum of immunized mice; assay type: in vivo; settings: IN002.5.1 mRNA LNP, 50 μL IM, serum on 14th day after immunization; FIG. 5-6

Structure (SMILES): CCCCCCCOC(=O)CCN(CCCN(C)C)C(=O)OC(CCCCCCCCC(=O)OC(CCCCCC)CCCCCC)CCCCCCCCC(=O)OC(CCCCCC)CCCCCC [Compound 267]
- Liver (fluorescence expression intensity) (Female BALB/c mice [1]): 9.91E+07
- Spleen (fluorescence expression intensity) (Female BALB/c mice [1]): 1.54E+06
- Total flux (fluorescence expression intensity) (Female BALB/c mice [1]): 4.01E+08
- (Spleen/Total Flux) * 100% (Female BALB/c mice [1]): 0.38%
- Multiple of spleen delivery/total delivery to amino lipid compound 118 (Female BALB/c mice [1]): 1.13
- Cellular immunity effect (IFN-γ Elispot) compared to ALC0315 (Female BALB/c mice [2]): better cellular immunity effect

Structure (SMILES): CCCCCCCOC(=O)CN(CCCN(C)C)C(=O)OC(CCCCCCCCC(=O)OC(CCCCCC)CCCCCC)CCCCCCCCC(=O)OC(CCCCCC)CCCCCC [Compound 273]
- Liver (fluorescence expression intensity) (Female BALB/c mice [1]): 4.33E+07
- Spleen (fluorescence expression intensity) (Female BALB/c mice [1]): 2.37E+06
- Total flux (fluorescence expression intensity) (Female BALB/c mice [1]): 1.78E+08
- (Spleen/Total Flux) * 100% (Female BALB/c mice [1]): 1.33%
- Multiple of spleen delivery/total delivery to amino lipid compound 118 (Female BALB/c mice [1]): 3.92
- Humoral immunity effect (IgG titer) compared to ALC0315 (Female BALB/c mice [3]): better humoral immunity effect
- Cellular immunity effect (IFN-γ Elispot) compared to ALC0315 (Female BALB/c mice [2]): better cellular immunity effect

Structure (SMILES): CCCCCCC(CCCCCC)OC(=O)CCCCCCCCC(CCCCCCCCC(=O)OC(CCCCCC)CCCCCC)OC(=O)N(CCCN(C)C)CC(=O)OCCCC [Compound 270]
- Liver (fluorescence expression intensity) (Female BALB/c mice [1]): 1.34E+08
- Spleen (fluorescence expression intensity) (Female BALB/c mice [1]): 7.36E+06
- Total flux (fluorescence expression intensity) (Female BALB/c mice [1]): 4.40E+08
- (Spleen/Total Flux) * 100% (Female BALB/c mice [1]): 1.67%
- Multiple of spleen delivery/total delivery to amino lipid compound 118 (Female BALB/c mice [1]): 4.92
- Humoral immunity effect (IgG titer) compared to ALC0315 (Female BALB/c mice [3]): better humoral immunity effect
- Cellular immunity effect (IFN-γ Elispot) compared to ALC0315 (Female BALB/c mice [2]): better cellular immunity effect

Structure (SMILES): CCCCCCC(CCCCCC)OC(=O)CCCCCCCCC(CCCCCCCCC(=O)OC(CCCCCC)CCCCCC)OC(=O)N(CCCN(C)C)CCC(=O)OCCCC [Compound 264]
- Liver (fluorescence expression intensity) (Female BALB/c mice [1]): 1.61E+08
- Spleen (fluorescence expression intensity) (Female BALB/c mice [1]): 8.05E+06
- Total flux (fluorescence expression intensity) (Female BALB/c mice [1]): 4.95E+08
- (Spleen/Total Flux) * 100% (Female BALB/c mice [1]): 1.63%
- Multiple of spleen delivery/total delivery to amino lipid compound 118 (Female BALB/c mice [1]): 4.78
- Humoral immunity effect (IgG titer) compared to ALC0315 (Female BALB/c mice [3]): better humoral immunity effect
- Cellular immunity effect (IFN-γ Elispot) compared to ALC0315 (Female BALB/c mice [2]): better cellular immunity effect

Structure (SMILES): CCCCCCOC(=O)CN(CCCN(C)C)C(=O)OC(CCCCCCCCC(=O)OC(CCCCCC)CCCCCC)CCCCCCCCC(=O)OC(CCCCCC)CCCCCC [Compound 272]
- Liver (fluorescence expression intensity) (Female BALB/c mice [1]): 7.42E+07
- Spleen (fluorescence expression intensity) (Female BALB/c mice [1]): 3.03E+06
- Total flux (fluorescence expression intensity) (Female BALB/c mice [1]): 4.04E+08
- (Spleen/Total Flux) * 100% (Female BALB/c mice [1]): 0.75%
- Multiple of spleen delivery/total delivery to amino lipid compound 118 (Female BALB/c mice [1]): 2.21
- Cellular immunity effect (IFN-γ Elispot) compared to ALC0315 (Female BALB/c mice [2]): better cellular immunity effect
